In data set [1] the test system is mouse macrophage cell line (RAW264 cells). Kind of data set: Immunosuppressive action: inhibition of LPS-induced nitrogen monoxide production. In kind it is cell-based. To be noted: LPS 100 ng/mL; 1,2-benzenediol 0 µg/mL to 10 µg/mL; FIG. 4. As to the method: A substance contained in Antheraea yamamai pupae and Bombyx mori pupae and having an immunosuppressive action on humans or animals having ate the insects was identified. Distilled water was added to a dry powder of Antheraea yamamai pupae and a dried powder of Bombyx mori pupae and the mixture was stirred and centrifugally separated to obtain the supernatant. Ethyl acetate was added to the resultant supernatant to cause liquid-liquid partition, and the resultant ethyl acetate layer was evaporated to dryness by distilling off the solvent with a rotary evaporator. Distilled water was added to the residue, which was added to a C18 solid phase column, and the flow-through fraction was recovered. The resultant flow-through fraction was eluted with high performance liquid chromatography (Develosil C30 column), and the immunosuppressive action of each eluted fraction obtained was measured. […]
Whether 1,2-benzenediol identified from Antheraea yamamai pupae and Bombyx mori pupae has an immunosuppressive action or not was evaluated by the production of nitrogen monoxide from a mouse macrophage cell line (RAW264 cells) as an indicator.

Data set [2] shares this test system. In kind it is cell-based.

As to `Oc1ccccc1O` [1,2-benzenediol], the “inhibition of nitrogen monoxide production” value in data set [1] is reported as “inhibition of nitrogen monoxide production was observed depending on the concentration”. For the same compound, the “growth inhibition of a mouse macrophage cell line (concentration at which confirmed)” value in data set [2] is no less than 1 µg/mL.

(Values after patent EP3466279B1, “PRODUCTION METHOD OF COMPOSITION USING INSECT AS A RAW MATERIAL” (National University Corporation Ehime University, priority 2016, dated 2017).)
